The subject of this experiment is free fatty acid production. Nature of the experiment: Inhibition of free fatty-acid production, in vivo, in catheterized male rats (NEFA assay on serum). Further details: species or system Sprague-Daly Rats. The settings on record: food deprived catheterized rats, IP administration at various concentrations, FIG. 2A/2B. The protocol: Inhibition of Free Fatty-Acid Production, In Vivo, in Catheterized Male Sprague-Daly Rats
Non-esterified free-fatty acid (NEFA) assays were done on serum derived from live, freely moving rats. Jugular vein catheters were surgically implanted into the jugular veins and the animals were allowed to recover at least 48 hr post surgery. Food was removed from the animals approximately 16 hours prior to the assay. A draw of ˜200 μl blood was pulled from the catheter and represents the baseline NEFA serum sample. Drug was administered intra-peritoneally (IP) at various concentrations to individual rats and then ˜200 μl blood draws were pulled from the catheter at the indicated time points for further NEFA analysis. NEFA assays were performed according to the manufacturer's specifications (Wako Chemicals, USA; NEFA C) and free fatty acid concentrations were determined via regression analysis of a known standard curve (range of known free fatty acids). Data was analyzed using Excel and PrismGraph.

For `CC1(C2=CCCCC2)OC(C(=O)O)=CC1=O` (racemic) [Compound 1, 5-Cyclohex-1-enyl-5-methyl-4-oxo-4,5-dihydro-furan-2-carboxylic acid], the “inhibition of plasma free fatty acid (NEFA)” value was “able to inhibit free fatty acid production to the same extent, at similar doses and within the same time-frame as compared to nicotinic acid”.

Turning to `O=C(O)c1cccnc1` [nicotinic acid, pyridine-3-carboxylic acid], the “inhibition of plasma free fatty acid (NEFA)” value is reported as “inhibiting plasma free fatty acid concentrations”.

The values are drawn from patent US7803837B2, “4-oxo-4,5-dihydro-furan-2-carboxylic acid derivatives and methods of treatment of metabolic-related disorders thereof” (Arena Pharmaceuticals, Inc., priority 2003, dated 2010).
